Results reported in patent publication US20220233624A9, “ANTI-CANCER AND ANTI-PROLIFERATIVE COMPOSITIONS, AND METHODS FOR THEIR USE IN TREATING CANCER” (Natreon, Inc., priority 2020, published 2022).
Several values for one entry are separate records, joined by “and”; a condition that tells them apart may be missing. Equal values may be shown once. Read-outs that look alike come from different tables or passages of the source. Marks after values point to notes of the source that are not given here.

Experiments:
[1] = system: Breast Cancer PDCs, ER/PR+ Her2 equivocal (HR+); assay: Anti-proliferation assay on breast cancer HR+ PDCs; assay type: cell-based, human; conditions: drug alone @ 3 uM; for inhibition at 3 µM: Homo sapiens; for % Inhibition, single replicates: 3 µM
Procedure: (§1) The outermost rows/columns of the plates were filled with PBS (pH 7.4) to avoid an edge-effect and were considered as blanks. Standardized aqueous extracts identified in Table 2 were prepared in main stock solutions by dissolving 1 mg of extract in 1 ml PBS (phosphate-buffered saline, pH 7.4). […] The plate was incubated in a CO2 incubator for 0/N incubation for 24 hours. […] Once extracts were added to incubated cells and mixed gently, the plate was given a brief spin and incubated in the CO2 incubator for 72 hours. The plate was removed from the incubator and 10 ul of detection reagent (CellTiterGlo®; Promega Corporation, Wisconsin, USA) added to each well of the 384 well plate. […] The assay described above is a two-dimensional (2D) assay.

[2] = system: Breast Cancer PDCs, ER/PR− Her2+ (Her2+); assay: Anti-proliferation assay on breast cancer Her2+ PDCs; assay type: cell-based, human; conditions: drug alone @ 3 uM; for inhibition at 3 µM: Homo sapiens; for % Inhibition, single replicates: 3 µM
Procedure: as §1

[3] = system: Breast Cancer PDCs, Triple negative (TN), SB 36344; assay: Anti-proliferation assay on breast cancer TN PDCs; assay type: cell-based, human; conditions: drug alone @ 3 uM; for inhibition at 3 µM: Homo sapiens; for % Inhibition, single replicates: 3 µM
Procedure: as §1

[4] = system: colon cancer cells (cell line HT-29); assay: Anti-proliferation assay on colon cancer cells; assay type: cell-based; conditions: Homo sapiens
Procedure: (§2) Anti-proliferative and anti-cancer activity of extracts of this invention on non-small cell lung cancer cells and colon cancer cells were assessed generally as described in Example I and are discussed below. […] As noted throughout this application, the below data is intended to describe the present invention but not to be limiting.
(§3) Non-small cell lung cancer cells (cell line NCI-H-358) and colon cancer cells (cell line HT-29) were plated in a 384-well plate in amounts of about 1.25 k cells/well. […] Wells with untreated cells and with plain media were also included as controls. Plates passed quality control parameters.

[5] = system: TN breast cancer PDCs SB 30750; assay: Anti-proliferation assay on TN breast cancer PDCs SB 30750; assay type: cell-based; conditions: Homo sapiens, 3 uM, 72 h
Procedure: In this Example, AyuFlex®, Capros®, and Ayuric® were each applied to different PDCs than previous tests, TN breast cancer PDCs SB 30750, and tested via the anti-proliferation assay described above. […] Incubation times were 72 hours.

[6] = system: TN Breast Cancer cell line MDAMB-231; assay: Anti-proliferation assay on MDAMB-231 cells (72 h and 120 h); assay type: cell-based; conditions: Homo sapiens, MDA-MB-231, 3 uM
Procedure: Also, AyuFlex®, Capros®, and Ayuric® were tested in the anti-proliferative assay discussed above in the TN Breast Cancer cell line MDAMB-231. AyuFlex®, Capros®, and Ayuric® were incubated for 72 hours and 120 hours. The dose-response efficacy of AyuFlex®, Capros®, and Ayuric® after a 72-hour period of incubation was similar to that observed after a 120-hour period of incubation with the MDAMB-231 cells. Without being bound by theory, possibly this was due to saturation of cell growth at the 120-hour time-point.

[7] = system: colon cancer cells (cell line HT-29); conditions: J. Surg. Res. 111(1):63-69 (2003); read-out: IC50 (published); cited from earlier work
[8] = system: Non-small cell lung cancer cells (cell line NCI-H-358); assay: Anti-proliferation assay on non-small cell lung cancer cells; assay type: cell-based; conditions: Homo sapiens, NCI-H358
Procedure: as §2, §3

[9] = system: SHP-77 (small cell lung cancer) cells; assay: Anti-proliferation assay on small cell lung cancer cells; assay type: cell-based; conditions: Homo sapiens, SHP77
Procedure: SHP-77 (small cell lung cancer) cells were incubated for 72 hours with 100 ug/ml, 30 ug/ml, and 10 ug/ml each of AyuFlex®, Capros® Phyto-BGS®, PrimaVie®, Sensoril®, Ayuric®, and Crominex®, and tested according to the anti-proliferative assay described above. Cells were plated at 1.25 k/well in 384 well plates. Standard of care drug docetaxel was also tested at a 10 uM concentration as a control. Anti-proliferative assays were generally performed as discussed above, in triplicate, with detection reagent CellTiterGlo® as discussed for instance in Example I. Tables 77-79 show data for controls and that the data passed quality control parameters.

[10] = system: Prostate cancer (PC-3) cells; assay: Anti-proliferation assay on prostate cancer cells; assay type: cell-based; conditions: Homo sapiens
Procedure: (§4) Cells were plated at 1.25 k/well in 384 well plates. […] Anti-proliferative assays were generally performed as discussed in Example I above, in triplicate, with detection reagent CellTiterGlo. Tables 80-82 show data for controls for assays on prostate cancer (PC-3 cells), and that the data passed quality control parameters. Tables 83-85 show data for controls for assays on ovarian cancer (OVCAR-3 cells), and that the data passed quality control parameters.

[11] = system: Ovarian cancer (OVCAR-3) cells; assay: Anti-proliferation assay on ovarian cancer cells; assay type: cell-based; conditions: Homo sapiens
Procedure: as §4

[12] = system: Non-small cell lung cancer cells (cell line NCI-H-358); conditions: Intl. J. Oncol. 31:241-252 (2007); read-out: IC50 (published); cited from earlier work
[13] = read-out: % Inhibition, single replicates
[14] = drug 10 uM, read-out: inhibition of proliferation
[15] = plate control @ 10 uM, read-out: % Inhibition Average (SD)
[16] = plate control @ 10 uM, read-out: % Inhibition n1
[17] = plate control @ 10 uM, read-out: % Inhibition n2
[18] = plate control @ 10 uM, read-out: % Inhibition n3
[19] = 72 hour incubation, read-out: % Inhibition Avg
[20] = 72 hour incubation, read-out: % Inhibition n1
[21] = 72 hour incubation, read-out: % Inhibition n2
[22] = 72 hour incubation, read-out: % Inhibition n3
[23] = 120 hour incubation, read-out: % Inhibition Avg
[24] = 120 hour incubation, read-out: % Inhibition n1
[25] = 120 hour incubation, read-out: % Inhibition n2
[26] = 120 hour incubation, read-out: % Inhibition n3
[27] = 10 uM, 72 h, read-out: % Inhibition Average (SD)
[28] = 10 uM, 72 h, read-out: % Inhibition n1
[29] = 10 uM, 72 h, read-out: % Inhibition n2
[30] = 10 uM, 72 h, read-out: % Inhibition n3
[31] = drug 10 uM, read-out: inhibition

Q: What does the source list for `O=c1[nH]cc(F)c(=O)[nH]1` [5-FU, 5-fluorouracil]?
A: inhibition at 3 µM ([1]; read-out: % Inhibition Avg): ~28%; % Inhibition Avg [1]: 29%; % Inhibition, single replicates [1]: 42% and 20% and 23%; inhibition at 3 µM [2]: 18%; % Inhibition, single replicates [2]: 41* % and 16% and 19%; inhibition at 3 µM ([3]; read-out: % Inhibition Avg): 38%; inhibition at 3 µM [3, 13]: 48%; % Inhibition, single replicates [3]: 33%; inhibition at 10 µM [4, 14]: 12%; inhibition at 10 µM [4, 15]: 12%; inhibition at 10 µM [4, 16]: 20%; inhibition at 10 µM [4, 17]: 7%; inhibition at 10 µM [4, 18]: 10%; inhibition at 3 µM ([5]; read-out: % Inhibition Avg): 24%; inhibition at 3 µM ([5]; read-out: % Inhibition n1): 44%; inhibition at 3 µM ([5]; read-out: % Inhibition n2): 14%; inhibition at 3 µM ([5]; read-out: % Inhibition n3): 14%; inhibition at 3 µM [6, 19]: 4%; inhibition at 3 µM [6, 20]: 21%; inhibition at 3 µM [6, 21]: -5%; inhibition at 3 µM [6, 22]: -4%; inhibition at 3 µM [6, 23]: -8%; inhibition at 3 µM [6, 24]: 20%; inhibition at 3 µM [6, 25]: -10%; inhibition at 3 µM [6, 26]: -5%; IC50 [7]: 13 µM

Q: Which results are given for `CC(=O)O[C@@]12CO[C@@H]1C[C@H](O)[C@@]1(C)C(=O)[C@H](O)C3=C(C)[C@@H](OC(=O)[C@H](O)[C@@H](NC(=O)OC(C)(C)C)c4ccccc4)C[C@@](O)([C@@H](OC(=O)c4ccccc4)[C@H]21)C3(C)C` [Docetaxel, docetaxel]?
A: inhibition at 3 µM ([1]; read-out: % Inhibition Avg): ~59%; inhibition at 3 µM [1, 13]: 67%; % Inhibition, single replicates [1]: 53% and 58%; inhibition at 3 µM [2]: ~50%; % Inhibition, single replicates [2]: 30* % and 43% and 57%; inhibition at 3 µM ([3]; read-out: % Inhibition Avg): ~48%; inhibition at 3 µM [3, 13]: 56%; % Inhibition, single replicates [3]: 44% and 43%; inhibition at 10 µM [8, 14]: 58%; inhibition at 10 µM [8, 15]: 58%; inhibition at 10 µM [8, 16]: 63%; inhibition at 10 µM [8, 17]: 55%; inhibition at 10 µM [8, 18]: 58%; inhibition at 3 µM ([5]; read-out: % Inhibition Avg): 56%; inhibition at 3 µM ([5]; read-out: % Inhibition n1): 68%; inhibition at 3 µM ([5]; read-out: % Inhibition n2): 52%; inhibition at 3 µM ([5]; read-out: % Inhibition n3): 47%; inhibition at 3 µM [6, 19]: 56%; inhibition at 3 µM [6, 20]: 67%; inhibition at 3 µM [6, 21]: 50%; inhibition at 3 µM [6, 22]: 52%; inhibition at 3 µM [6, 23]: 75%; inhibition at 3 µM [6, 24]: 78%; inhibition at 3 µM [6, 25]: 71%; inhibition at 3 µM [6, 26]: 76%; inhibition at 10 µM [9, 27]: 90%; inhibition at 10 µM [9, 28]: 90%; inhibition at 10 µM [9, 29]: 91%; inhibition at 10 µM [9, 30]: 89%; inhibition at 10 µM [9, 31]: 90%; inhibition at 10 µM [10, 27]: 58%; inhibition at 10 µM [10, 28]: 53%; inhibition at 10 µM [10, 29]: 67%; inhibition at 10 µM [10, 30]: 56%; inhibition at 10 µM [10, 31]: 58%; inhibition at 10 µM [11, 27]: 66%; inhibition at 10 µM [11, 28]: 65%; inhibition at 10 µM [11, 29]: 68%; inhibition at 10 µM [11, 30]: 65%; inhibition at 10 µM [11, 31]: 66%; IC50 [12]: 0.367 µM
